Patent US5382670A, “Platelet activating factor antagonists” (priority 1993, dated 1995)
Structures can show the parent of a compound that is named as a salt.

Biological target: PAF receptor (Oryctolagus cuniculus, UniProt G1TEI7)
Experiment: PAF receptor binding assay: inhibition of specific [3H]C18-PAF binding to rabbit platelet membranes
Conditions: 0.6 nM [3H]C18-PAF, 60 min, 22-23 °C, Ki from IC50 (Cheng and Prusoff), read-out: Ki (PAF Receptor Binding Activity)
Procedure: The ability of representative compounds of the present invention to inhibit PAF activity was determined in an in vitro test using the following method.
Citrated whole rabbit blood was obtained from Pel-Freez (Rogers, AR). Rabbit platelets were prepared by centrifugation and washing. The platelets were lysed by freeze-thawing and sonication; platelet membranes were prepared by centrifugation and washing. Final membrane preparations were stored frozen in 10 mM Tris/5 mM MgCl2 /2 mM EDTA (TME buffer, pH 7.0) with 0.25M sucrose added for membrane stabilization.
The standard PAF receptor binding assay contained 10 μg platelet membrane protein, 0.6 nM [^3 H]C18 -PAF (from Amersham or New England Nuclear; specific activity 120-180 Ci/mmol), with and without test compound, in "binding buffer" consisting of TME with 0.25% bovine serum albumin added (Sigma, RIA grade). The final volume of the assay was 100 μl. The assay was conducted in Millititre-GV™ (Millipore Corp.) filtration plates; incubation time was for 60 minutes at room temperature (22°-23° C.). "Specific binding" was operationally defined as the arithmetic difference between "total binding" of 0.6 nM [^3 H]C18 -PAF (in the abasence of added PAF) and "nonspecific binding" (in the presence of 1 μM PAF). After the prescribed incubation, platelet membranes were filtered under vacuum, and washed with 1 milliliter of "binding buffer". The filters were dried and removed. The bound radioactivity was quantitated with a Berthold TLC-Linear Analyzer model LB2842.
Dose-response curves of inhibition of specific [^3 H]C18 -PAF binding by test compounds were conducted in triplicate, with at least four doses covering the active range. Experiments were repeated at least once. IC50 values (concentration producing 50% inhibition) were determined by point-to-point evaluation. Ki values of inhibitory binding constants were calculated according to the method of Cheng and Prusoff [Biochem. Pharmacol. 22 (1973) 3099-3108] whereby [formula]
The values of Ki for representative compounds of the present invention appear in Table 1.

Chain of PAF receptor (G1TEI7 1-342): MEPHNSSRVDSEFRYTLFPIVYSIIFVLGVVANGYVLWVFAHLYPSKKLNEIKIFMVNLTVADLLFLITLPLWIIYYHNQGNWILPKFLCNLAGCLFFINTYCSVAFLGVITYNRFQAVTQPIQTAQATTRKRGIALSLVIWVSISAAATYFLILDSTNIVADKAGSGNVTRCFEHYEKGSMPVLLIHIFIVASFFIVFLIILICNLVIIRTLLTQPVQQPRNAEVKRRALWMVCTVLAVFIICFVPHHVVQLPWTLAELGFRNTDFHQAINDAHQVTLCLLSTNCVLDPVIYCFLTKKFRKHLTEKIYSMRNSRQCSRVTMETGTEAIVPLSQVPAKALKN

Compared with `CN(C)C(=O)n1cc(C(=O)C2CSC(c3cccnc3)N2C=O)c2ccc(OCc3ccccc3)cc21` (stereo not drawn) [Example 93, 1-dimethylcarbamoyl-3-[2-(3-pyridinyl)-3-formylthiazolid-4-oyl]-6-phenylmethoxyindole], `O=C(c1cn(S(=O)(=O)c2ccccc2)c2ccccc12)C1CSC(c2cccnc2)S1` (stereo not drawn) [Example 32, 1-phenylsulfonyl 3-[2-(3-pyridinyl)dithiolan-4-oyl]indole oxalate] is 29-fold higher in Ki: 0.035 µM for the first, 1 µM for the second.

Compared with `CN(C)C(=O)n1cc(C(=O)C2CSC(c3cccnc3)N2)c2ccccc21` (stereo not drawn) [Example 38], “1-ethoxycarbonyl-3-[2-(3-pyridinyl)thiazolid-4-oyl]indole oxalate [Example 41]” is 4-fold higher in Ki: 0.001 µM for the first, 0.004 µM for the second.

Going from `CN(C)C(=O)n1cc(C(=O)[C@@H]2CS[C@H](c3cccnc3)N2C=O)c2ccccc21` (relative stereo) [Example 97, cis-1-Dimethylcarbamoyl-3-[2-(3-pyridinyl)-3-formylthiazolid-4-oyl]indole] to `O=C(c1c[nH]c2cc(OCc3ccc(F)cc3)ccc12)C1CSC(c2cccnc2)N1` (stereo not drawn) [Example 74, 3-[2-(3-pyridinyl)thiazolid-4-oyl]-6-(4-fluorophenylmethoxy)indole], the Ki falls from 0.15 µM to 0.003 µM (50-fold).

Going from `COc1ccc2c(C(=O)C3CSC(c4cccnc4)N3)cn(C(=O)OC(C)(C)C)c2c1` (stereo not drawn) [Example 84, 1-tert-butoxycarbonyl-3-[2-(3-pyridinyl)thiazolid-4-oyl]-6-methoxyindole oxalate] to `CC(C)(C)OC(=O)n1cc(C(=O)[C@@H]2CS[C@H](c3cccnc3)S2)c2ccccc21` (relative stereo) [Example 29, cis-1-tert-butoxycarbonyl-3-[2-(3-pyridinyl)dithiolan-4-oyl]indole hydrochloride], the Ki rises from 0.009 µM to 0.18 µM (20-fold).

First: CC(=O)N1C(C(=O)c2cn(C(=O)N(C)C)c3cc(OCc4ccccc4)ccc23)CSC1c1cccnc1 (stereo not drawn) [Example 99, 1-dimethylcarbamoyl-3-[2-(3-pyridinyl)-3-acetylthiazolid-4-oyl]-6-phenylmethoxyindole]
Second: O=C(C1CSC(c2cccnc2)N1)n1ccc2ccc(OCc3ccccc3)cc21 (stereo not drawn) [Example 18, 1-(2-(3-pyridinyl)thiazolid-4-oyl)-6-phenylmethoxyindole oxalate]
The Ki of the first is 96-fold higher: 5 µM for the first, 0.052 µM for the second.

Compared with `Cc1c(C(=O)C2CSC(c3cccnc3)N2)c2ccccc2n1C` (stereo not drawn) [Example 21, 1.2-dimethyl-3-[2-(3-pyridinyl)thiazolid-4-oyl]indole oxalate], `O=C(c1c[nH]c2ccccc12)C1CSC(c2cccnc2)S1` (stereo not drawn) [Example 31, 3-2-(3-pyridinyl)dithiolan-4-oyl]indole oxalate] is 16-fold higher in Ki: 0.105 µM for the first, 1.7 µM for the second.

First: CC(=O)N1C(C(=O)c2cn(C(=O)N(C)C)c3cc(OCc4ccccc4)ccc23)CSC1c1cccnc1 (stereo not drawn) [Example 101, oxalate]
Second: Cc1ccc2c(C(=O)C3CSC(c4cccnc4)N3C=O)cn(C(=O)N(C)C)c2c1 (stereo not drawn) [Example 94, 1-dimethylcarbamoyl-3-[2-(3-pyridinyl)-3-formylthiazolid-4-oyl]-6-methylindole]
The Ki of the first is 67-fold higher: 2.2 µM for the first, 0.033 µM for the second.

Compared with `CN(C)C(=O)n1cc(C(=O)C2CSC(c3cccnc3)N2)c2ccc(C#Cc3ccccc3)cc21` (stereo not drawn) [Example 78], `CC(C)(C)C(=O)n1cc(C(=O)C2CSC(c3cccnc3)N2)c2ccccc21` (stereo not drawn) [Example 47, 1-tert-butoyl-3-[2-(3-pyridinyl)thiazolid-4-oyl]indole] is 4.5-fold higher in Ki: 0.002 µM for the first, 0.009 µM for the second. The first binds more tightly here.

Compared with `CN(C)C(=O)n1cc(C(=O)C2CSC(c3cccnc3)N2C(N)=O)c2ccc(OCc3ccccc3)cc21` (stereo not drawn) [Example 111, 1-dimethylcarbamoyl-3-[2-(3-pyridinyl)-3-carbamoylthiazolid-4-oyl]-6-phenylmethoxyindole], `Cc1ccc2c(c1)c(C(=O)C1CSC(c3cccnc3)N1)c(C)n2C(=O)N1CCOCC1` (stereo not drawn) [Example 68, 1-(4-morpholinocarbonyl)-2,5-dimethyl-3-[2-(3-pyridinyl)thiazolid-4-oyl]indole] is 19-fold lower in Ki: 0.7 µM for the first, 0.036 µM for the second. The second binds more tightly here.

Compared with `CN(C)C(=O)n1cc(C(=O)C2CSC(c3cccnc3)N2)c2ccc(OCc3ccccc3)cc21` (stereo not drawn) [Example 123, 1-dimethylcarbamoyl-3-[2-(3-pyridinyl)thiazolid-4-oyl]-6-phenylmethoxyindole oxalate], `O=C(c1cn(C(=O)N2CCOCC2)c2cc(OCc3ccccc3)ccc12)C1CSC(c2cccnc2)N1` (stereo not drawn) [Example 72, 1-(4-morpholinocarbonyl)-3-[2-(3-pyridinyl)thiazolid-4-oyl]-6-phenylmethoxyindole oxalate] is 5-fold higher in Ki: 0.002 µM for the first, 0.01 µM for the second. The first binds more tightly here.

Going from `CN(C)C(=O)n1cc(C(=O)C2CSC(c3cccnc3)N2C(N)=O)c2ccccc21` (stereo not drawn) [Example 110, 1-dimethylcarbamoyl-3-[2-(3-pyridinyl)-3-carbamoylthiazolid-4-oyl]indole] to `COc1cc(C(=O)c2cccc3c2ccn3C(=O)C2CSC(c3cccnc3)N2)cc(OC)c1OC` (stereo not drawn) [Example 8, 1-[2-(3-pyridinyl)thiazolid-4-oyl]-4-(3,4,5-trimethoxybenzoyl)indole], the Ki falls from 1.4 µM to 0.004 µM (350-fold). The second binds more tightly here.

Going from `O=C(c1c[nH]c2cc(Oc3ccc(F)cc3)ccc12)C1CSC(c2cccnc2)N1` (stereo not drawn) [Example 70, 3-[2-(3-pyridinyl)thiazolid-4-oyl]-6-(4-fluorophenoxy)indole] to `CC(=O)N1C(C(=O)c2cn(C(=O)N(C)C)c3ccccc23)CSC1c1cccnc1` (stereo not drawn) [Example 100, 1-dimethylcarbamoyl-3-[2-(3-pyridinyl)-3-acetylthiazolid-4-oyl]indole], the Ki rises from 0.002 µM to 5.2 µM (2600-fold). The first binds more tightly here.

Compared with `O=C(c1c[nH]c2ccccc12)C1CSC(c2cccnc2)N1C(=O)C(F)(F)F` (single isomer, unassigned; isomer 2) [Example 103, 3-[2-(3-pyridinyl)-3-trifluoroacetylthiazolid-4-oyl]indole, isomer 2], `O=C(c1c[nH]c2ccc(OCc3ccccc3)cc12)C1CSC(c2cccnc2)N1` (stereo not drawn) [Example 23, 3-(2-(3-pyridinyl)thiazolid-4-oyl])-5-phenylmethoxyindole oxalate] is 120-fold lower in Ki: 2.8 µM for the first, 0.023 µM for the second.

Going from `CC(C)(C)OC(=O)n1cc(C(O)C2CSC(c3cccnc3)N2)c2ccccc21` (stereo not drawn) [Example 114, [2-(3-pyridinyl)thiazolid-4-yl](1-tert-butoxycarbonylindol-3-yl)methanol] to `CC(C)(C)OC(=O)n1cc(C(=O)C2CSC(c3cccnc3)N2)c2cccc(OCc3ccccc3)c21` (stereo not drawn) [Example 53, 1-tert-butoxycarbonyl-7-phenylmethoxy-3-[2-(3-pyridinyl)thiazolid-4-oyl]indole], the Ki falls from 0.043 µM to 0.001 µM (43-fold). The second binds more tightly here.

First: CN(C)C(=O)n1cc(C(=O)[C@@H]2CS[C@H](c3cccnc3)N2C(=O)C(F)(F)F)c2ccccc21 (relative stereo) [Example 105, cis-1-dimethylcarbamoyl-3-[2-(3-pyridinyl)-3-trifluoroacetylthiazolid-4-oyl]indole oxalate]
Second: O=CN1C(C(=O)c2c[nH]c3ccccc23)CSC1c1cccnc1 (stereo not drawn) [Example 90, 3-[2-(3-pyridinyl)-3-formylthiazolid-4-oyl]indole]
The Ki of the first is 1.5-fold lower: 0.175 µM for the first, 0.27 µM for the second.

Compared with `CN(C)C(=O)n1cc(C(=O)[C@@H]2CS[C@H](c3cccnc3)N2C(=O)C(F)(F)F)c2ccccc21` (relative stereo) [Example 104, cis-1-dimethylcarbamoyl-3-[2-(3-pyridinyl)-3-trifluoroacetylthiazolid-4-oyl]indole], `COc1ccc2c(C(=O)C3CSC(c4cccnc4)N3)cn(C(=O)N(C)C)c2c1` (stereo not drawn) [Example 85, 1-dimethylcarbamoyl-3-[2-(3-pyridinyl)thiazolid-4-oyl]-6-methoxyindole] is 160-fold lower in Ki: 0.65 µM for the first, 0.004 µM for the second. The second binds more tightly here.

With `CN(C)C(=O)n1cc(C(=O)C2C[S+]([O-])C(c3cccnc3)N2C=O)c2ccccc21` (stereo not drawn) [Example 95, 1-dimethylcarbamoyl-3-[1-oxide,2-(3,pyridinyl)-3-formylthiazolid-4-oyl]indole] the Ki was 3.3 µM.

Same assay, conditions: Ki (PAF Receptor Binding Activity), 0.6 nM [3H]C18-PAF, 60 min, 22-23 °C, Ki from IC50 (Cheng and Prusoff)

First: CCCn1cc(C(=O)C2CSC(c3cccnc3)N2)c2ccccc21 (stereo not drawn) [Example 61, 1-propyl-3-[2-(3-pyridinyl)thiazolid-4-oyl]indole]
Second: Cc1ccc2c(C(=O)C3CSC(c4cccnc4)N3)c[nH]c2c1 (stereo not drawn) [Example 80, 3-[2-(3-pyridinyl)thiazolid-4-oyl]-6-methylindole]
The Ki of the first is 2.7-fold higher: 0.008 µM for the first, 0.003 µM for the second. The second binds more tightly here.

Compared with `O=C(C1CSC(c2cccnc2)N1)n1ccc2cc(Cl)ccc21` (stereo not drawn) [Example 9, 1-[2-(3-pyridinyl)thiazolid-4-oyl]-5-chloroindole dihydrochloride], `O=C(C1CSC(c2cccnc2)N1)n1ccc2ccc(Br)cc21` (stereo not drawn) [Example 16, 1-[2-(3-pyridinyl)thiazolid-4-oyl]-6-bromoindole] is 5.6-fold lower in Ki: 0.14 µM for the first, 0.025 µM for the second.

Compared with `COc1ccc2c(C(=O)C3CSC(c4cccnc4)N3)c[nH]c2c1` (stereo not drawn) [Example 83, 3-[2-(3-pyridinyl)thiazolid-4-oyl]-6-methoxyindole oxalate], `COC(=O)c1ccc2c(C(=O)C3CSC(c4cccnc4)N3)c[nH]c2c1` (stereo not drawn) [Example 122, 3-[2-(3-pyridinyl)thiazolid-4-oyl]-6-carbomethoxyindole] is 25-fold higher in Ki: 0.016 µM for the first, 0.4 µM for the second.
